Laboratory results published in patent publication US7087642B2 (priority 1999, dated 2006).

tested on: human PBMC B cells; test: cells; assay type: cell-based; details: Homo sapiens, 72 h, read-out: B-cells (IC50)

First: COc1cc(NC(=O)Nc2cccc(CNC(=O)OC(CC#N)CN(C)C)c2)ccc1-c1cnco1 (centres unmarked) [Compound 17]
Second: COc1cc(NC(=O)Nc2cccc(CNC(=O)OC(CCl)CC#N)c2)ccc1-c1cnco1 (centres unmarked) [Compound 25]
The IC50 of the first is higher: over 1000 nM for the first, 100 to 1000 nM for the second. The second is the more potent here.

Compared with COc1cc(NC(=O)Nc2cccc(CNC(=O)OC(CC#N)CN3CCCCC3)c2)ccc1-c1cnco1 (centres unmarked) [Compound 21], COc1cc(NC(=O)Nc2cccc(CNC(=O)OC(CCN3CCCC3)c3ccccc3)c2)ccc1-c1cnco1 (centres unmarked) [Compound 56] is lower in IC50: over 1000 nM for the first, 100 to 1000 nM for the second.

Compared with COc1cc(NC(=O)Nc2cccc(CNC(=O)OC3CCC[C@H]3N3CCOCC3)c2)ccc1-c1cnco1 (some centres unmarked) [Compound 86], COc1cc(NC(=O)Nc2cccc(CNC(=O)OC(CN3CCSCC3)c3ccccc3)c2)ccc1-c1cnco1 (centres unmarked) [Compound 105] is lower in IC50: over 1000 nM for the first, 100 to 1000 nM for the second.

In the case of COc1cc(NC(=O)Nc2cccc(CNC(=O)OC(CN3CC[S+]([O-])CC3)c3ccccc3)c2)ccc1-c1cnco1 (centres unmarked) [Compound 106], the IC50 is reported as under 100 nM.

molecular target: IMPDH human type II (Homo sapiens, UniProt P12268); test: biochemical; details: not given

CCN(C)CCC(OC(=O)NCc1cccc(NC(=O)Nc2ccc(-c3cnco3)c(OC)c2)c1)c1ccccc1 (centres unmarked) [Compound 139] and CCN(CC)CCC(OC(=O)NCc1cccc(NC(=O)Nc2ccc(-c3cnco3)c(OC)c2)c1)c1ccccc1 (centres unmarked) [Compound 140] cannot be ordered by Ki: over 50 nM for the first, over 50 nM for the second.

Compared with CC[C@@H](CC#N)OC(=O)N[C@@H](C)c1cccc(NC(=O)Nc2ccc(C#N)c(OC)c2)c1 [Compound 168], CC[C@@H](CC#N)OC(=O)N[C@H](C)c1cccc(NC(=O)Nc2ccc(C#N)c(OC)c2)c1 [Compound 172] is higher in Ki: 10 to 50 nM for the first, over 50 nM for the second. The first binds more tightly here.

Work on CC[C@H](CC#N)OC(=O)N[C@@H](C)c1cccc(NC(=O)Nc2ccc(C#N)c(Cl)c2)c1 [Compound 183] yielded a Ki of 10 to 50 nM.

same assay, conditions: read-out: Ki

COc1cc(NC(=O)Nc2cccc(CNC(=O)O[C@H](CC#N)CN(C)C)c2)ccc1-c1cnco1 [Compound 17] and COc1cc(NC(=O)Nc2cccc(CNC(=O)O[C@@H](CCl)CC#N)c2)ccc1-c1cnco1 [Compound 25] cannot be ordered by Ki: under 10 nM for the first, under 10 nM for the second.

COc1cc(NC(=O)Nc2cccc(CNC(=O)O[C@@H](CC#N)CN3CCCCC3)c2)ccc1-c1cnco1 [Compound 21] and COc1cc(NC(=O)Nc2cccc(CNC(=O)OC(CCN3CCCC3)c3ccccc3)c2)ccc1-c1cnco1 (centres unmarked) [Compound 56] cannot be ordered by Ki: under 10 nM for the first, under 10 nM for the second.

Compared with COc1cc(NC(=O)Nc2cccc(CNC(=O)OC(CCN(C)C(=O)OC(C)(C)C)c3ccccc3)c2)ccc1-c1cnco1 (centres unmarked) [Compound 31], COc1cc(NC(=O)Nc2cccc(CNC(=O)OC(CCN(C)CC(C)C)c3ccccc3)c2)ccc1-c1cnco1 (centres unmarked) [Compound 124] is higher in Ki: 10 to 50 nM for the first, over 50 nM for the second.

COc1cc(NC(=O)Nc2cccc(CNC(=O)O[C@H](CCC#N)COCc3ccccc3)c2)ccc1-c1cnco1 [Compound 53] and COc1cc(NC(=O)Nc2cccc(CNC(=O)O[C@H](CC#N)COCc3ccccc3)c2)ccc1-c1cnco1 [Compound 55] cannot be ordered by Ki: under 10 nM for the first, under 10 nM for the second.

CC[C@H](COCc1ccccc1)OC(=O)NCc1cccc(NC(=O)Nc2ccc(-c3cnco3)c(OC)c2)c1 [Compound 54] and CCC(CN)OC(=O)NCc1cccc(NC(=O)Nc2ccc(-c3cnco3)c(OC)c2)c1 (centres unmarked) [Compound 161] cannot be ordered by Ki: under 10 nM for the first, under 10 nM for the second.

Going from COc1cc(NC(=O)Nc2cccc(CNC(=O)O[C@@H]3CC[C@H](OC(C)=O)C3)c2)ccc1-c1cnco1 [Compound 85] to CC[C@H](COC(C)=O)OC(=O)NCc1cccc(NC(=O)Nc2ccc(-c3cnco3)c(OC)c2)c1 [Compound 94], the Ki falls from over 50 nM to under 10 nM.

COc1cc(NC(=O)Nc2cccc(CNC(=O)O[C@@H]3CCC[C@H]3N3CCOCC3)c2)ccc1-c1cnco1 [Compound 86] and CCN(CC)C[C@@H](OC(=O)NCc1cccc(NC(=O)Nc2ccc(-c3cnco3)c(OC)c2)c1)C1CCCCC1 [Compound 157] fall in the same range of Ki: 10 to 50 nM for the first, 10 to 50 nM for the second.

First: CC[C@H](COC(=O)CNC(=O)OC(C)(C)C)OC(=O)NCc1cccc(NC(=O)Nc2ccc(-c3cnco3)c(OC)c2)c1 [Compound 93]
Second: CCC(CNC(=O)OC(C)(C)C)OC(=O)NCc1cccc(NC(=O)Nc2ccc(-c3cnco3)c(OC)c2)c1 (centres unmarked) [Compound 160]
The Ki of the first is lower: 10 to 50 nM for the first, over 50 nM for the second. The first binds more tightly here.

First: CC[C@H](COC(=O)CN)OC(=O)NCc1cccc(NC(=O)Nc2ccc(-c3cnco3)c(OC)c2)c1 [Compound 95]
Second: CC[C@H](COC(N)=O)OC(=O)NCc1cccc(NC(=O)Nc2ccc(-c3cnco3)c(OC)c2)c1 [Compound 159]
The Ki of the first is higher: 10 to 50 nM for the first, under 10 nM for the second.

First: CC[C@H](COP(=O)(O)O)OC(=O)NCc1cccc(NC(=O)Nc2ccc(-c3cnco3)c(OC)c2)c1 [Compound 96]
Second: CC[C@H](COS(N)(=O)=O)OC(=O)NCc1cccc(NC(=O)Nc2ccc(-c3cnco3)c(OC)c2)c1 [Compound 138]
The Ki of the first is higher: 10 to 50 nM for the first, under 10 nM for the second.

First: COc1cc(NC(=O)Nc2cccc(CNC(=O)O[C@H](CN3CCSCC3)c3ccccc3)c2)ccc1-c1cnco1 [Compound 105]
Second: COc1cc(NC(=O)Nc2cccc(CNC(=O)O[C@H](CN3CC[S+]([O-])CC3)c3ccccc3)c2)ccc1-c1cnco1 [Compound 106]
The Ki of the first is lower: under 10 nM for the first, over 50 nM for the second.

First: CCCN(CC)C[C@@H](OC(=O)NCc1cccc(NC(=O)Nc2ccc(-c3cnco3)c(OC)c2)c1)c1ccccc1 [Compound 111]
Second: CCN(CC1CC1)C[C@@H](OC(=O)NCc1cccc(NC(=O)Nc2ccc(-c3cnco3)c(OC)c2)c1)c1ccccc1 [Compound 134]
The Ki of the first is higher: over 50 nM for the first, 10 to 50 nM for the second.

CCN(CC(OC(=O)NCc1cccc(NC(=O)Nc2ccc(-c3cnco3)c(OC)c2)c1)c1ccccc1)C1CC1 (centres unmarked) [Compound 135] and CCCN(CC(OC(=O)NCc1cccc(NC(=O)Nc2ccc(-c3cnco3)c(OC)c2)c1)c1ccccc1)C1CC1 (centres unmarked) [Compound 136] cannot be ordered by Ki: over 50 nM for the first, over 50 nM for the second.

COc1cc(NC(=O)Nc2cccc(CNC(=O)O[C@H](CN(CC3CC3)C3CC3)c3ccccc3)c2)ccc1-c1cnco1 [Compound 137] and CCN(CC)C[C@@H](OC(=O)NC(C)c1cccc(NC(=O)Nc2ccc(-c3cnco3)c(OC)c2)c1)c1ccccc1 (some centres unmarked) [Compound 167] cannot be ordered by Ki: over 50 nM for the first, over 50 nM for the second.

COc1cc(NC(=O)Nc2cccc(CNC(=O)O[C@H](CO)CCO)c2)ccc1-c1cnco1 [Compound 141] and CC[C@H](CO)OC(=O)N[C@@H](C)c1cccc(NC(=O)Nc2ccc(-c3cnco3)c(OC)c2)c1 [Compound 164] fall in the same range of Ki: 10 to 50 nM for the first, 10 to 50 nM for the second.

Compared with CCN(CC)CC(OC(=O)NCc1cccc(NC(=O)Nc2ccc(-c3cnco3)c(OC)c2)c1)c1nccs1 (centres unmarked) [Compound 142], CC[C@H](CO)OC(=O)N[C@H](C)c1cccc(NC(=O)Nc2ccc(-c3cnco3)c(OC)c2)c1 [Compound 165] is higher in Ki: 10 to 50 nM for the first, over 50 nM for the second.

CC[C@H](CC#N)OC(=O)N[C@H](C)c1cccc(NC(=O)Nc2ccc(-c3cnco3)c(OC)c2)c1 [Compound 171] and CC[C@@H](CO)OC(=O)N[C@@H](C)c1cccc(NC(=O)Nc2ccc(C#N)c(OC)c2)c1 [Compound 176] cannot be ordered by Ki: over 50 nM for the first, over 50 nM for the second.

CCC(NC(=O)O[C@@H](CC)CC#N)c1cccc(NC(=O)Nc2ccc(C#N)c(OC)c2)c1 (some centres unmarked) [Compound 177] and CCC(NC(=O)O[C@H](CC)CC#N)c1cccc(NC(=O)Nc2ccc(C#N)c(OC)c2)c1 (some centres unmarked) [Compound 178] cannot be ordered by Ki: over 50 nM for the first, over 50 nM for the second.

First: COc1cc(NC(=O)Nc2cccc([C@H](C)NC(=O)O[C@@H]3CCOC3)c2)ccc1C#N [Compound 184]
Second: CCOc1cc(NC(=O)Nc2cccc([C@H](C)NC(=O)O[C@H]3CCOC3)c2)ccc1C#N [Compound 186]
The Ki of the first is lower: 10 to 50 nM for the first, over 50 nM for the second. The first binds more tightly here.

tested on: human PBMC T cells; test: cells; assay type: cell-based; details: Homo sapiens, 72 h, read-out: T-cells (IC50)

First: COc1cc(NC(=O)Nc2cccc(CNC(=O)OC(CC#N)CN(C)C)c2)ccc1-c1cnco1 (centres unmarked) [Compound 17]
Second: COc1cc(NC(=O)Nc2cccc(CNC(=O)OC(CCl)CC#N)c2)ccc1-c1cnco1 (centres unmarked) [Compound 25]
The IC50 of the first is higher: over 1000 nM for the first, 100 to 1000 nM for the second. The second is the more potent here.

COc1cc(NC(=O)Nc2cccc(CNC(=O)OC(CC#N)CN3CCCCC3)c2)ccc1-c1cnco1 (centres unmarked) [Compound 21] and COc1cc(NC(=O)Nc2cccc(CNC(=O)OC(CN3CCSCC3)c3ccccc3)c2)ccc1-c1cnco1 (centres unmarked) [Compound 105] fall in the same range of IC50: 100 to 1000 nM for the first, 100 to 1000 nM for the second.

Compared with COc1cc(NC(=O)Nc2cccc(CNC(=O)OC3CCC[C@H]3N3CCOCC3)c2)ccc1-c1cnco1 (some centres unmarked) [Compound 86], COc1cc(NC(=O)Nc2cccc(CNC(=O)OC(CN3CC[S+]([O-])CC3)c3ccccc3)c2)ccc1-c1cnco1 (centres unmarked) [Compound 106] is lower in IC50: over 1000 nM for the first, under 100 nM for the second.
